The subject of one series is red blood cells. The series is described as follows: Toxicity and oxidative stress in red blood cells.
A further series has as its system wild-type (WT) animals. In words: Novel object recognition task in wild-type control rats. The class given is in vivo, rat. How it is done: The experiments were performed in Fmr1-^Δexon 8 rats on a Sprague-Dawley background (Horizon Discovery, formerly SAGE Labs, USA), proposed as a genetic model of ASD and rat model of FXS (Golden et al., 2019; Schiavi et al., 2022); the corresponding wild-type (WT) animals were used as controls.
(§1) We performed three experiments testing Fmr1-^Δexon 8 rats and WT controls in the novel object recognition task using three different treatment schedules for psilocybin administration: • 1. Experiment 1: a single dose of either 1 (Hibicke et al., 2020) or 3 mg/kg psilocybin given intraperitoneally (i.p.) eight days before behavioral testing (FIG. 8A); • 2. Experiment 2: repeated microdoses of psilocybin (0.1 mg/kg) given i.p. three times every other day, with behavioral testing starting five days after the last administration (FIG. 8B); • 3. Experiment 3: repeated microdoses of psilocybin (0.1 or 0.3 mg/kg) (Higgins et al., 2021) given orally (p.o.) three times every other day, for two consecutive weeks, with behavioral testing starting five days after the last administration (FIG. 8C).
We have recently shown that Fmr1-^Δexon 8 rats show impaired novel object recognition memory at adolescence (Schiavi et al., 2022). […] On the training trial, each rat was individually placed into an open-field arena containing two identical objects (A1 and A2), equidistant from each other, and allowed to explore the objects for 5 min. Thirty minutes later, one copy of the familiar object (A3) and a new object (B) were placed in the same location as during the training trial. Each rat was placed in the apparatus for 5 minutes, and the time spent exploring each object was recorded. The discrimination index was calculated as the difference in time exploring the novel and the familiar objects, expressed as the percentage ratio of the total time spent exploring both objects (Schiavi et al., 2022).
Data are expressed as mean±SEM and were analyzed by two-way ANOVA, with genotype (WT or Fmr1-^Δexon 8) and treatment (psilocybin or vehicle) as factors. Tukey's post hoc test was used for individual group comparisons. The accepted value for significance was set at p<0.05. Data were analyzed using GraphPad Prism 8 software.

Series [1] is described as follows: Observation of discomfort/intoxication after repeated oral microdosing. The class given is in vivo, rat. As to conditions: Experiment 3: 0.1 or 0.3 mg/kg p.o. repeated; immediately and days after administration. How it is done: as §1
To increase the translational value of our findings, we finally decided to assess the effects of repeated oral administration of 0.1 and 0.3 mg/kg psilocybin microdoses, for two weeks every other day, in our Fmr1-^Δexon 8 rats. The animals were tested five days after the last treatment, to prevent any hallucinogenic effect of the drug at the time of behavioral performance.

The next series relates to VPA-exposed rats. The series is described as follows: Elevated plus-maze test in rats prenatally exposed to valproic acid. The class given is in vivo, rat. As to conditions: offspring of VPA-treated pregnant rats. How it is done:
Female Wistar rats (Charles River), weighing 250±15 g, were mated overnight. The morning when spermatozoa were found was designated as gestational day 1 (GD1). Pregnant rats were singly housed in Macrolon cages (401×26w x 20h cm), under controlled conditions (temperature 20-21° C., 55-65% relative humidity and 12/12h light cycle with lights on at 07:00 a.m.). Food and water were available ad libitum. On gestational day 12.5, females received a single intraperitoneal injection of either sodium valproate (VPA) or saline (SAL). […] Newborn litters found up to 5.00 p.m. were considered to be born on that day (Postnatal day (PND) 0). On PND 1, the litters were culled to eight animals (six males and two females). On PND 21, the pups were weaned and housed in groups of three. […]
The apparatus comprised two open and two closed arms (501×10×40 h cm) that extended from a common central platform (101×10 w cm). […] Each session was recorded with a camera positioned above the apparatus for subsequent behavioral analysis performed using the Observer 3.0 software (Noldus Information Technology). The following parameters were analyzed: […]
Data are expressed as mean±SEM. To assess the effects of prenatal VPA exposure and psilocybin on behavioral parameters, data were analyzed by two-way ANOVA, with prenatal treatment and postnatal treatment as factors. […]

For series [2] the following is noted: 0.1 mg/kg, rats; Higgins et al., 2021; cited from earlier work.

Entries after “also recorded” stand apart in the source; their conditions may differ.

In the case of `CN(C)CCc1c[nH]c2cccc(O)c12` [psilocin], the “toxicity in red blood cells” value in the series with red blood cells is given as “non-toxic”.

For `CN(C)CCc1c[nH]c2cccc(OP(=O)(O)O)c12` [psilocybin], the “cognitive performance of WT animals (% discrimination index)” value with wild-type (WT) animals (Experiment 1: single dose 1 mg/kg i.p. eight days before testing, WT rats) is listed as “did not affect the performance of WT animals”; in the series on wild-type (WT) animals (Experiment 1: single dose 3 mg/kg i.p. eight days before testing, WT rats vs WT vehicle, p<0.001, 3 mg/kg), “poorer cognitive performance; also recorded: detrimental effect”. Besides, the “cognitive performance of WT animals” value in the series with wild-type (WT) animals (Experiment 2: 0.1 mg/kg i.p. three times every other day, WT rats) is reported as “without affecting the performance of WT animals”; in the series with wild-type (WT) animals (Experiment 3: 0.1 or 0.3 mg/kg p.o. repeated for two weeks, WT rats), “without affecting the performance of WT animals”. Further, the “performance in wild-type (WT) control animals” value in the series on wild-type (WT) animals (repeated microdoses (schedule not given at the place)) is given as “without affecting the performance”. In addition, the “signs of discomfort/intoxication in the animals” value in series [1] is reported as “did not induce any sign of discomfort/intoxication”. Moreover, the “safety of treatment in the VPA model” value in the series with VPA-exposed rats is “safe”. The “side effects on motor activity or stereotypies” value in series [2] is recorded as “devoid of side effects on motor activity or stereotypies”. Besides, the “toxicity in red blood cells” value in the series on red blood cells is given as “non-toxic”.

The values are drawn from patent US20240424005A1, “DIAGNOSING, MONITORING AND TREATING NEUROLOGICAL DISEASE WITH PS[…] DERIVATIVES AND mRNA MEASUREMENTS” (NOVA MENTIS LIFE SCIENCE CORP., priority 2021, published 2024).
